According to PubChem BioAssay (NCI):
Values joined by “and” are separate entries in the source; they are usually repeats but may differ in a detail not shown here. Equal entries are not always repeated.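 Growth conditions: 96-well plates. Treatment: test compound, 48 hours, 5 concentrations. Analysis: linear interpolation between bracketing concentrations; unreached endpoints set to highest concentration. Abbreviation: GI50, concentration required for 50% inhibition of growth. At the TGI there is no net growth.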

Tests used:
Experiment in all cases: NCI anticancer screen, dose series, 48 h
[1] = system: K-562 leukemia
[2] = system: ACHN renal
[3] = system: RPMI-8226 leukemia
[4] = system: T-47D breast
[5] = system: U251 CNS
[6] = system: CCRF-CEM leukemia
[7] = system: SK-MEL-2 melanoma
[8] = system: UO-31 renal
[9] = system: HOP-92 NSCLC
[10] = system: SK-MEL-5 melanoma

Compound	GI50 [1] [µM]	TGI [1] [µM]	GI50 [2] [µM]	TGI [2]	GI50 [3] [µM]	TGI [3] [µM]	GI50 [4] [µM]	TGI [4] [µM]	GI50 [5] [µM]	TGI [5]	GI50 [6] [µM]	TGI [6] [µM]	GI50 [7] [µM]	TGI [7] [µM]	GI50 [8] [µM]	TGI [8]	GI50 [9] [µM]	TGI [9] [µM]	GI50 [10] [µM]	TGI [10]
Cc1ccccc1/C=C1\CN(C(=O)OC(C)(C)C)C/C(=C\c2ccccc2C)C1=O	2.86	> 100	2.7	7.15 µM	1.66	5.37	3.78	> 100	1.82	3.95 µM	2.9	12.6	10.1	26.5	1.63	3.09 µM	1.9	5.75	2.12	4.49 µM
CC(C)[C@@H]1CC[C@@H]2[C@@H]1[C@H](OC(=O)/C=C/c1ccccc1)[C@]1(C(C)C)C[C@@H](OC(=O)CO)[C@@]2(C)O1	10.4	24.1	0.00824	4.25 µM	7.44	16.5	5.27	12.5	5.54	10.6 µM	6.9	15.2	7.71	17.6	0.011	0.0857 µM	4.34	8.88	5.96	10.8 µM
CC/C=C\C/C=C\C[C@H]1C/C=C2/C(=O)C=C[C@H]2C/C=C\CCC(=O)O1	2.84	> 14.3	2.6	5.2 µM	1.29	7.45	4.62	> 14.3	3.06	9.71 µM	2.89	13	3.45	9.94	2.23	4.96 µM	2.72	8.01	2.24	4.41 µM
C=C1N(C)c2ccc(Cl)cc2C1(C)C	3.75	> 100	24.6	> 100 µM	2.56	10.4	3.54	> 100	3.68	57.2 µM	12.9	69.2	13.5	42.8	27.9	> 100 µM	3.72	22.9	4.32	15 µM
S=C(N/N=C(/c1ccccc1)c1ccccn1)Nc1cccc(Cl)c1	–	–	–	4.6 µM and 5.42 µM	0.00601	–	0.56	–	0.0513	2.91 µM and 4.58 µM	< 0.001	0.0383	0.0753	2.87	1.51	3.34 µM and 4.99 µM	1.65	13	0.358	1.46 µM and 4.08 µM
COc1ccc(/C=C/C(=O)c2ccc(Nc3ccnc4cc(Cl)ccc34)cc2)cc1	4.15	> 54	> 100	> 100 µM	4.94	> 55.6	> 100	> 100	> 100	> 100 µM	5.64	> 100	> 100	> 100	> 100	> 100 µM	> 100	> 100	21.6	> 100 µM
COc1ccc(-c2coc3cc(OC)cc(O)c3c2=O)cc1	–	> 100	–	> 100 µM	–	> 100	–	> 100	–	> 100 µM	–	> 100	–	–	–	–	–	94.6	–	> 100 µM
O=c1cccc(C#CC#C/C=C/CO)o1	4.92	> 100	2.13	4.86 µM	2.63	> 100	2.36	4.46	1.89	3.84 µM	–	–	7.52	> 31.3	2.6	–	2.74	5.85	2.48	6.24 µM
CCc1ccc(Nc2cc(C)nc3nc(C)nn23)cc1	35.5	> 100	34.8	> 100 µM	32	> 100	21.3	> 100	75.2	> 100 µM	48.1	> 100	> 100	> 100	23.6	> 100 µM	28.9	> 100	32.9	> 100 µM
COc1cc(OC)cc(-c2cncn2-c2ccc(-c3nc4cc(OC)c(OC)c(OC)c4s3)cc2)c1	3.57	> 100	11.5	> 100 µM	2.9	> 100	4.74	> 100	5.44	> 100 µM	–	–	6.16	> 100	1.94	58.9 µM	> 100	> 100	2.85	> 100 µM
CN1CCCCC1CCN1c2ccccc2Sc2ccc(S(C)=O)cc21 (stereo unspecified)	–	> 100	–	> 100 µM	–	> 100	–	> 100	–	> 100 µM	–	> 100	–	> 100	–	–	–	> 100	–	> 100 µM
O=C(CCl)Nc1ccc2c(c1)C(=O)c1ccc(NC(=O)CCl)cc1C2=O	0.319	> 100	–	–	0.434	2.23	1.22	3.95	–	–	0.127	0.896	0.783	3.84	0.449	1.88 µM	1.13	2.61	0.214	0.502 µM
CCCN1CCN(c2ccc3nc(-c4ccc5nc(-c6ccc(OCC)c(OCC)c6)[nH]c5c4)[nH]c3c2)CC1	–	–	1	2.6 µM	0.387	1.89	0.428	5.66	0.398	1.55 µM	0.394	3.07	0.508	2.01	1.58	3.32 µM	1	5.5	0.424	1.77 µM
